In brackets after ≈: the same amount, converted by molar mass. Read-outs that look alike come from different tables or passages of the source.
Key:
S. aureus AB = assay type: cell-based, Staphylococcus aureus
S. cerevisiae S288C = assay: MIC test of STs and ST-acids; assay type: cell-based, Saccharomyces cerevisiae; settings: YPD medium; 2 days at 30° C.
E. coli W3110 = assay: MIC test of STs and ST-acids; assay type: cell-based, Escherichia coli; settings: Heart Infusion Broth; 1 day at 37° C.
S. pombe L972 = assay: MIC test of STs and ST-acids; assay type: cell-based, Schizosaccharomyces pombe; settings: YPD medium; 2 days at 30° C.
[1] = system: bacteria, fungi and plants; settings: chemically synthesized from ST-F; reports of Inamori and Taniyama; cited from earlier work
B. subtilis NBRC13169 = assay: MIC test of STs and ST-acids; assay type: cell-based, Bacillus subtilis; settings: Heart Infusion Broth; 1 day at 37° C.
S. aureus FIR1169 = assay type: cell-based, Staphylococcus aureus
[2] = system: gram-positive and -negative bacteria, clinically isolated pathogenic bacteria and yeasts; assay type: cell-based
rSttH [3] = system: T1, rSttH; assay: rSttH reaction rate test (kinetic analysis, HPLC, Lineweaver-Burk); assay type: biochemical, Streptomyces albulus NBRC14147; settings: substrate of rSttH; 30° C., 100 mM NaPB (pH 6.5); average ± s.d. of three tests
T1 construct: purified rSttH from E. coli M15 (pREP4) carrying pQE30-SHF6R; 6xHis (N); made in house; host or cells: E. coli M15 (pREP4) carrying pQE30-SHF6R
Method: (§1) In accordance with the manufacturer's (Qiagen) protocols, a reaction mixture (500 μL) was prepared using 100 mM sodium phosphate buffer (pH 6.5), 1 mg/mL ST-F or ST-D, and 100 μg/mL of purified rSttH from E. coli M15 (pREP4) carrying pQE30-SHF6R. The reaction mixture was reacted for 1 hour at 30° C. with or without rSttH, and then extracted with chloroform to remove the proteins. The water layer was analyzed by reverse-phase HPLC using an ion-pair reagent. The analytical conditions were: column, C18 reverse-phase column (COSMOSIL 5C18-AR—II, 250×4.6 mm, Nacalai Tesque, Kyoto, Japan); column temperature, 30° C.; detection, 210 nm; and flow rate, 1 mL/minute. Two different mobile phases were used, one of 0.1% heptafluorobutyric acid+18% acetonitrile (ST-F reaction) and one of 0.1% heptafluorobutyric acid+23% acetonitrile (ST-D reaction). The kinetic assays were performed under conditions similar to those described previously except that the enzyme concentrations (2 μg/mL) and reaction times (5 minutes) were reduced to make them compatible with measurement of steady-state kinetic parameters. All tests were carried out under linear conditions. The reactions were terminated by addition of 15 μl 2N HCl, and then analyzed by HPLC. The kinetic constants were estimated using a Lineweaver-Burk plot. The native molecular weight of the rSttH was estimated by gel filtration using a COSMOSIL 5Diol-300 (7.8 mm×600 mm) column (Nacalai Tesque) which had been equilibrated with 20 mM sodium phosphate buffer (pH 7.0) containing 100 mM sodium sulfate.
(§2) The optimal pH was measured in several buffers (100 mM) with differing pH values: sodium phosphate (NaPB), pH 4.5 to 7; Tris-HCl, pH 7 to 10. Activity peaked at a pH of 6.5 and declined rapidly with decreasing pH (around 4). The effect of temperature on enzymatic activity was also investigated within the range of 25° C. to 75° C. using 100 mM NaPB buffer (pH 6.5). Although enzymatic activity was greatest at 45° C., approximately 90% of maximum activity was also detected at 65° C.

rSttH [4] = target: T2, rSttH (Streptomyces noursei, UniProt Q1MW86); assay: as above; assay type: biochemical, Streptomyces albulus NBRC14147; settings: for Vmax: substrate of rSttH, 30° C., 100 mM NaPB (pH 6.5), U = ST-acid production per minute (μmol)
T2 construct: purified rSttH from E. coli M15 (pREP4) carrying pQE30-SHF6R; 6xHis (N); made in house; host or cells: E. coli M15 (pREP4) carrying pQE30-SHF6R
Method: as §1, §2

S. cerevisiae CKY8 = assay: MIC of ST-F and ST-D in S. cerevisiae CKY8 overexpressing sttH or nat gene; assay type: cell-based, Saccharomyces cerevisiae; settings: SC medium, 2 days at 30° C.
Method: After sequence confirmation, the amplified fragments were inserted into the same sites in pAD4 to prepare pAD4-nat and pAD4-sttH, in which these genes were expressed under the control of the constitutive promoter of yeast alcohol dehydrogenase. S. cerevisiae CKY8 strain carrying pAD4-nat and pAD4-sttH was grown in SC-Leu medium containing ST (ST-F or ST-D, 0 to 4 mM), and the MICs of ST-F and ST-D were determined.
(§3) Although it was previously reported that the biological activity of chemically synthesized ST-F-acid is negligible in microorganisms and plants, that of ST-D-acid remains unclear. Therefore, we determined the respective MICs of ST-F and ST-D in E. coli and Saccharomyces cerevisiae overexpressing the sttH gene or nat gene (Table 3). […] To confirm this, the selective toxicity of ST-acids and STs against various microorganisms including gram-positive and -negative bacteria, clinically isolated pathogenic bacteria and yeasts was investigated. […] A “c/a” in parentheses in the table represents the ratio of the minimum inhibitory concentrations of ST-F-acid and ST-F, while “d/b” represents the ratio of the minimum inhibitory concentrations of ST-D-acid and ST-D.

E. coli XL1-Blue MRF' = assay: MIC of ST-F and ST-D in E. coli XL1-Blue MRF' overexpressing sttH or nat gene; assay type: cell-based, Escherichia coli; settings: LB medium, 1 day at 37° C.
Method: Restriction enzyme sites (GGATCC or AAGCTT, underlined) and a stop codon (TCA, underlined) were inserted into these primers. An expression vector (pQE30-nat) having incorporated therein an amplified fragment including these primers was constructed using pQE30. The MIC of ST-F and ST-D in an E. coli XL1-Blue MRF′ strain carrying pQE30-nat and pQE30-SHF6R were determined on LB agar flat plates containing ampicillin (100 μg/mL), 0.1 mM IPTG and STs (0 to 4 mM). S. cerevisiae CKY8 strain overexpressing the nat gene and the sttH gene was also prepared as follows. The following two sets of primers having restriction enzyme sites (AAGCTT or CTGCAG, underlined) and stop codons (TCA, underlined) added thereto were designed and used in PCR:
as §3

[5] = Enzymatic properties of rSttH (effect of pH and temperature); assay type: biochemical
Method: as §2

[6] = Heart Infusion Broth, 1 day at 37° C.

Row | Molecule | Minimum inhibitory concentration (MIC) (S. aureus AB) | Minimum inhibitory concentration (MIC) (S. cerevisiae S288C) [µM] | ratio of MICs of ST-acid and parent ST (c/a or d/b) (S. cerevisiae S288C) | Minimum inhibitory concentration (MIC) (E. coli W3110) [µM] | ratio of MICs of ST-acid and parent ST (c/a or d/b) (E. coli W3110) | Minimum inhibitory concentration (MIC) (S. pombe L972) [µM] | ratio of MICs of ST-acid and parent ST (c/a or d/b) (S. pombe L972) | Minimum inhibitory concentration (MIC) (B. subtilis NBRC13169) [µM] | ratio of MICs of ST-acid and parent ST (c/a or d/b) (B. subtilis NBRC13169) | Minimum inhibitory concentration (MIC) (S. aureus FIR1169) | Km (rSttH [3]) [µM] | Vmax (rSttH [4]) [U/mg] | Minimum inhibitory concentration (MIC) (S. cerevisiae CKY8; CKY8 + pAD4-nat) [µM] | Minimum inhibitory concentration (MIC) (S. cerevisiae CKY8; CKY8 + pAD4-sttH) [µM] | Minimum inhibitory concentration (MIC) (S. cerevisiae CKY8; CKY8 + pAD4) [µM] | Minimum inhibitory concentration (MIC) (S. aureus AB; [6]) [mM] | Minimum inhibitory concentration (MIC) (E. coli XL1-Blue MRF'; XL1-Blue MRF' + pQE30-SHF6R) [µM] | Minimum inhibitory concentration (MIC) (E. coli XL1-Blue MRF'; XL1-Blue MRF' + pQE30-nat) [µM] | Minimum inhibitory concentration (MIC) (E. coli XL1-Blue MRF'; XL1-Blue MRF' + pQE30) [µM] | Minimum inhibitory concentration (MIC) (S. aureus FIR1169; [6]) [mM] | further results
1 | NCCCC(N)CC(=O)NC1C(/N=C2/NC(C(=O)O)C(C(O)CN)N2)OC(CO)C(OC(N)=O)C1O (centres unmarked) [ST-F-acid] | 2 (126) mM | > 4000 | > 64 | 4000 (≈ 2080 µg/mL) | 133 | > 4000 | > 32 | 4000 (≈ 2080 µg/mL) | 250 | 2 (126) mM |  |  |  |  |  |  |  |  |  |  | antibiotic activity [1]: did not exhibit antibiotic activity; antimicrobial activity [2]: lost almost all of its antimicrobial activity
2 | lactam ring-opened streptothricin D derivative [ST-D-acid] | 0.06 (15) mM | 1000 | 250 | 250 | 31.3 | 1000 | 125 | 125 | 31.3 | 0.06 (15) mM |  |  |  |  |  |  |  |  |  |  | antimicrobial activity (S. aureus AB): particularly strong antimicrobial activity; antimicrobial activity (S. aureus FIR1169): particularly strong antimicrobial activity
3 | NCCC[C@H](N)CC(=O)NCCC[C@H](N)CC(=O)NCCC[C@H](N)CC(=O)N[C@@H]1[C@H](O)[C@@H](OC(N)=O)[C@@H](CO)O[C@H]1NC1=N[C@@H]2C(=O)NC[C@@H](O)[C@H]2N1 [ST-D, streptothricin D] |  | 4 (≈ 3.04 µg/mL) |  | 8 (≈ 6.07 µg/mL) |  | 8 (≈ 6.07 µg/mL) |  | 4 (≈ 3.04 µg/mL) |  |  | 5740 ± 990 | 68.95 ± 13.9 | >4000 | >4000 | <30 | 0.004 (≈ 3.04 µg/mL) | <30 | 2000 | <30 | 0.004 (≈ 3.04 µg/mL) | 
4 | NCCC[C@H](N)CC(=O)N[C@@H]1[C@H](O)[C@@H](OC(N)=O)[C@@H](CO)O[C@H]1NC1=N[C@@H]2C(=O)NC[C@@H](O)[C@H]2N1 [ST-F, streptothricin F] |  | 62 (≈ 31.2 µg/mL) |  | 30 (≈ 15.1 µg/mL) |  | 125 (≈ 62.8 µg/mL) |  | 16 (≈ 8.04 µg/mL) |  |  | 960 ± 190 | 42.26 ± 2.8 | >4000 | >4000 | 500 | 0.016 (≈ 8.04 µg/mL) | 250 | 4000 | <30 | 0.016 (≈ 8.04 µg/mL) | Vmax/Km of the reaction with ST-F relative to the reaction with ST-D (rSttH [4]; rSttH): 4 fold
5 | rSttH: recombinant lactam ring-opening enzyme from Streptomyces albulus NBRC14147, N-terminal 6× His Tag fused protein (protein, N-terminal 6xHis tag; streptomyces albulus, recombinant lactam ring-opening enzyme from Streptomyces albulus NBRC14147, N-terminal 6× His Tag fused protein) VTAMPPETAAPPETAAPARPLRPVQALLVVDVQTAFVSGAEAVPEAARVLDRTRGLLARARTAGALVVHLQNDGAPGAVDAPHTPGWELHLPVEPGPREHVVRKTEDDGFADTGLGALLDAAGVTELAVCGVLSEMCVAATARTALELGHRVVLPHDAHATYDIPAAPDISDTVPAAMSSRAAEWALGDEVEIVPRAAAVPFVAPPLAPAPEAPAAAAAPAAGTGLSPAGPPPAPAR |  |  |  |  |  |  |  |  |  |  |  |  |  |  |  |  |  |  |  |  | optimal pH (activity peak) ([5]; 100 mM buffers: NaPB pH 4.5 to 7, Tris-HCl pH 7 to 10): 6.5; enzymatic activity relative to maximum activity ([5]; at 65° C., 100 mM NaPB (pH 6.5)): approximately 90%; temperature of greatest enzymatic activity ([5]; range 25° C. to 75° C., 100 mM NaPB (pH 6.5)): 45 °C

Source: patent US7892784B2, “Lactam ring-opening enzyme and use thereof” (priority 2006, dated 2011)
